Reference: patent US9783536B2, “Nitrogen-containing heterocyclic compound or salt thereof” (FUJIFILM Corporation, priority 2013, dated 2017)
Like-named read-outs stand apart in the source and are kept apart here.

Legend:
Format in all cases: biochemical
human PI3Kα protein = target: T1, human PI3Kα protein (Homo sapiens, UniProt P42336); experiment: PI3Kα enzyme assay (ADP-Glo); conditions: read-out: PI3Kα enzyme inhibitory activity
T1 construct: purchased Carna Biosciences, Inc; host or cells: baculovirus expression system
How it was run: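 Biotinylated human PI3Kα (baculovirus-expressed, 4.5 nmol/L) pre-incubated 15 min with compound in Tris-HCl pH 7.5, MgCl2, BSA; reaction 60 min at 25° C with 50 μmol/L PIP2 and 100 μmol/L ATP final. ADP quantified by ADP-Glo luminescence; IC50 calculated.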

[1] = target: T2, GST fusion human ERK2 protein (Homo sapiens, UniProt P28482); experiment: ERK2 enzyme assay (1); conditions: read-out: ERK2 enzyme inhibitory activity (1)
T2 construct: purchased Carna Biosciences, Inc; host or cells: E. coli expression system
How it was run: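 IC50 derived from the proportion of phosphorylated 5-FAM peptide, separated from unphosphorylated peptide by microfluidic mobility shift. Compound was first preincubated 15 min at room temperature with 2.5 nmol/L kinase at pH 7.5, then 43.1 μmol/L ATP plus 4.25 μmol/L substrate reacted 120 min at 25 °C.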

[2] = target: T2, GST fusion human ERK2 protein; experiment: ERK2 enzyme assay (2); conditions: read-out: ERK2 enzyme inhibitory activity (2)
How it was run: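 IC50 values come from mobility-shift measurement of phosphorylated versus unphosphorylated 5-FAM peptide substrate after EDTA quench. Beforehand, compound and 1.25 nmol/L E. coli-expressed GST–human ERK2 stood 15 min at room temperature (pH 7.5), then 1 mmol/L ATP and 4.25 μmol/L substrate (final) were added for 120 min at 25 °C.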

[3] = 4.5 nmol/L PI3Kα, PIP2 50 μmol/L, ATP 100 μmol/L
[4] = 2.5 nmol/L ERK2, ATP 43.1 μmol/L

T1 sequence (P42336 whole entry): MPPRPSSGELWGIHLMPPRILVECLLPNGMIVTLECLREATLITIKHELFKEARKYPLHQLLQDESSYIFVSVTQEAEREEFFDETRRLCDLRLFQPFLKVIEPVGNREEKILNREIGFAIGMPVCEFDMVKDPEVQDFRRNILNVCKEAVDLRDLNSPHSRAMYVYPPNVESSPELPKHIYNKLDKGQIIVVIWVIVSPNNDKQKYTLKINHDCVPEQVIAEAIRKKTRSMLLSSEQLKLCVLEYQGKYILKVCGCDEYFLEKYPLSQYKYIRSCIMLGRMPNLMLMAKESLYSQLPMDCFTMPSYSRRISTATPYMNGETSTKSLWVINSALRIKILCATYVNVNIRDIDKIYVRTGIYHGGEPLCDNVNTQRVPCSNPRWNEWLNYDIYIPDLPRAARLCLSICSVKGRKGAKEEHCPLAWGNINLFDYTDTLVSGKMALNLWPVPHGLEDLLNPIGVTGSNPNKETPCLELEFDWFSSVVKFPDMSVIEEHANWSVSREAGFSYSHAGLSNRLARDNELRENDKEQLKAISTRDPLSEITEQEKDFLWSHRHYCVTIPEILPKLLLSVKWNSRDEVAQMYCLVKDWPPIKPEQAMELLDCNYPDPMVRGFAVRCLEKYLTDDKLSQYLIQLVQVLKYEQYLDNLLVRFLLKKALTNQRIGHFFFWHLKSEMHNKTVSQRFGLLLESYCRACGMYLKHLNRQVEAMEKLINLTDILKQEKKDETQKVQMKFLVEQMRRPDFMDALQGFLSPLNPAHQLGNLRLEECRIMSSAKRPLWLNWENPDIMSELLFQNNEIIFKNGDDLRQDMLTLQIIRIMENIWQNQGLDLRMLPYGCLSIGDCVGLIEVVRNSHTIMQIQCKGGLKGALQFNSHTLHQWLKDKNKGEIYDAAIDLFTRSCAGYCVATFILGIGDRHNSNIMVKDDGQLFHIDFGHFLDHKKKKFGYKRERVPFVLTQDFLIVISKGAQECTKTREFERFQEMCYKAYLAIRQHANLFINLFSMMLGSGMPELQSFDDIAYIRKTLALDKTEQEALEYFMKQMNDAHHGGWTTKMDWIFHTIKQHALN
T1 sequence (P27986 whole entry partner): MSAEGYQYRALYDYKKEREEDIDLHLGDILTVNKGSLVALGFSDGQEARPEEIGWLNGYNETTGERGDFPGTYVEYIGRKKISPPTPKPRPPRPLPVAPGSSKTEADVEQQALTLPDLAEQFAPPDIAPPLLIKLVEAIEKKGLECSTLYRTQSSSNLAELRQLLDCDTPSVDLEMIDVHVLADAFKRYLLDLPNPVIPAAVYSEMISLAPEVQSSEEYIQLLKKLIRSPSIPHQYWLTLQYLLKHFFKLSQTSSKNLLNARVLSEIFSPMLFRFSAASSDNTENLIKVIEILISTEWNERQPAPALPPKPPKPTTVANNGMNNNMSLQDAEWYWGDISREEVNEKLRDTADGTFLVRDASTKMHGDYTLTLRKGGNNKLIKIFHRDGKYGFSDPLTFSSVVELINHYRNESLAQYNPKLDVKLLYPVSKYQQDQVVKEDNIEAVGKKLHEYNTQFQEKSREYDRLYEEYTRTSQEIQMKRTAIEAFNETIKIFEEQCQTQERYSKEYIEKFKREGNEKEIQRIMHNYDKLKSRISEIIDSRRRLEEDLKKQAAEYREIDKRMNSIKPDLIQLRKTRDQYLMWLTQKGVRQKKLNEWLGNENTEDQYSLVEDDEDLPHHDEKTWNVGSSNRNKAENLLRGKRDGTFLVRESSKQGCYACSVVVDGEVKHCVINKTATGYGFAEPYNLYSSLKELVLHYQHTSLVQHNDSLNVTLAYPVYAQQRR
T2 sequence (P28482 whole entry, the tested form may be a part): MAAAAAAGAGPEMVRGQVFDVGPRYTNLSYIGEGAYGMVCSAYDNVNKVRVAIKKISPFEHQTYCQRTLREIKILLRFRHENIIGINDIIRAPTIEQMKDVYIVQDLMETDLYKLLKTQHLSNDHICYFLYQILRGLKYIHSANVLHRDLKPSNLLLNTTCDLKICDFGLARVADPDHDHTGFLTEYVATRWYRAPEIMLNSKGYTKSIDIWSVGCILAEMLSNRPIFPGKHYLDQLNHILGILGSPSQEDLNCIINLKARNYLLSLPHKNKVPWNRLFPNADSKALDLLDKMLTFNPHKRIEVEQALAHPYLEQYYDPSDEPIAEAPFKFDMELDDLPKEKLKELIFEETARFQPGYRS

| Compound | IC50 (human PI3Kα protein; [3]) | IC50 [1, 4] | IC50 ([2]; 1.25 nmol/L ERK2, ATP 1 mmol/L) | IC50 (human PI3Kα protein) | IC50 ([1]; ERK2 enzyme assay (1)) | IC50 ([2]; ERK2 enzyme assay (2)) |
| --- | --- | --- | --- | --- | --- | --- |
| CC(C)Cc1nn(C)cc1-c1cnc2ccc(Nc3nnc(C(C)C)s3)nc2c1 [Example 0138] | < 1000 nM | < 1000 nM | < 1000 nM |  |  |  |
| OCCCN1CCC(n2cc(-c3cnc4ccc(Nc5nnc(C6CCCC6)s5)nc4c3)cn2)CC1 [Example 0337, 3-(4-(4-(6-((5-Cyclopentyl-1,3,4-thiadiazol-2-yl)amino)-1,5-naphthyridin-3-yl)-1H-pyrazol-1-yl)piperidin-1-yl)propan-1-ol] |  |  |  | < 1000 nM | < 1000 nM | < 1000 nM |
| c1nc2ccc(Nc3cc(C4CCCC4)cnn3)nc2cc1-c1cnn(CCCN2CCCC2)c1 [Example 0016] | < 1000 nM | < 1000 nM | < 1000 nM |  |  |  |
| c1nc2ccc(Nc3cc(N4CCCC4)cnn3)nc2cc1-c1cnn(CCCN2CCCC2)c1 [Example 0402, 7-(1-(3-(Pyrrolidin-1-yl)propyl)-1H-pyrazol-4-yl)-N-(5-(pyrrolidin-1-yl)pyridazin-3-yl)-1,5-naphthyridine-2-amine] |  |  |  | < 1000 nM | < 1000 nM | < 1000 nM |
| c1cc(Cc2nnc(Nc3ccc4ncc(-c5cnn(CCCN6CCCC6)c5)cc4n3)s2)ccn1 [Example 0266] |  |  |  | < 1000 nM | < 1000 nM | < 1000 nM |
| c1cc(CN2CCOCC2)ncc1Nc1cnc2ccc(Nc3nnc(C4CCCC4)s3)nc2c1 [Example 0085] | < 1000 nM | < 1000 nM | < 1000 nM |  |  |  |
| CC(C)c1nnc(Nc2ccc3ncc(-c4cn(C)nc4-c4ccncc4)cc3n2)s1 [Example 0135] | < 1000 nM | < 1000 nM | 1000 to 10000 nM |  |  |  |
| COCCn1cc(-c2cnc3ccc(Nc4cc(C(C)C)cnn4)nc3c2)cn1 [Example 0471, N-(5-isopropylpyridazin-3-yl)-7-(1-(2-methoxyethyl)-1H-pyrazol-4-yl)-1,5-naphthyridine-2-amine] |  |  |  | < 1000 nM | < 1000 nM | < 1000 nM |
| c1cc(OC2CCOCC2)ncc1Nc1cnc2ccc(Nc3nnc(C4CCCC4)s3)nc2c1 [Example 0093] | 1000 to 10000 nM | < 1000 nM | 10000 to 50000 nM |  |  |  |
| CN1CCC(c2nnc(Nc3ccc4ncc(-c5cnn(C)c5)cc4n3)s2)C1 (stereo not shown) [Example 0252, N-(7-(1-methyl-1H-pyrazol-4-yl)-1,5-naphthyridin-2-yl)-5-(1-methylpyrrolidin-3-yl)-1,3,4-thiadiazole-2-amine] |  |  |  | 1000 to 10000 nM | < 1000 nM | < 1000 nM |
| c1ccc2ncc(Nc3cnc4ccc(Nc5nnc(C6CCCC6)s5)nc4c3)cc2c1 [Example 0094] | < 1000 nM | 10000 to 50000 nM | 10000 to 50000 nM |  |  |  |
| Cn1cc(-c2cnc3ccc(Nc4nnc(C5CCCC5)s4)nc3c2)c2cccnc21 [Example 0113] |  | < 1000 nM | < 1000 nM |  |  |  |
| F[C@H]1CCN(CCCn2cc(-c3cnc4ccc(Nc5nnc(C6CCCC6)s5)nc4c3)cn2)C1 [Example 0346] |  |  |  | < 1000 nM | < 1000 nM | < 1000 nM |
| CNC(=O)CCn1cc(-c2cnc3ccc(Nc4nnc(C5CCCC5)s4)nc3c2)cn1 [Example 0342] |  |  |  | < 1000 nM | < 1000 nM | < 1000 nM |
| CC(C)c1cnnc(Nc2ccc3ncc(-c4cnn(C5CCOCC5)c4)cc3n2)c1 [Example 0475, N-(5-isopropylpyridazin-3-yl)-7-(1-(tetrahydro-2H-pyran-4-yl)-1H-pyrazol-4-yl)-1,5-naphthyridine-2-amine] |  |  |  | < 1000 nM | < 1000 nM | < 1000 nM |
| CC(C)c1nnc(Nc2ccc3ncc(-c4cn(C)nc4C4CC4)cc3n2)s1 [Example 0133] | < 1000 nM | < 1000 nM | < 1000 nM |  |  |  |
| COCCCn1cc(-c2cnc3ccc(Nc4cc(C(C)C)cnn4)nc3c2)cn1 [Example 0472] |  |  |  | < 1000 nM | < 1000 nM | < 1000 nM |
| CC(C)c1nnc(Nc2ccc3ncc(-c4cnn(C)c4)cc3n2)s1 [Example 0167, 5-Isopropyl-N-(7-(1-methyl-1H-pyrazol-4-yl)-1,5-naphthyridin-2-yl)-1,3,4-thiadiazole-2-amine] | < 1000 nM | < 1000 nM | < 1000 nM |  |  |  |
| COc1nn(C)cc1-c1cnc2ccc(Nc3nnc(C(C)C)s3)nc2c1 [Example 0131] | < 1000 nM | < 1000 nM | < 1000 nM |  |  |  |

| Compound | IC50 (human PI3Kα protein; [3]) | IC50 [1, 4] | IC50 ([2]; 1.25 nmol/L ERK2, ATP 1 mmol/L) | IC50 (human PI3Kα protein) | IC50 ([1]; ERK2 enzyme assay (1)) | IC50 ([2]; ERK2 enzyme assay (2)) |
| --- | --- | --- | --- | --- | --- | --- |
| FC1(F)CN(CCCn2cc(-c3cnc4ccc(Nc5nnc(C6CCCC6)s5)nc4c3)cn2)C1 [Example 0354] |  |  |  | < 1000 nM | < 1000 nM | < 1000 nM |
| CCCc1nnc(Nc2ccc3ncc(-c4cnn(CCCN5CCCC5)c4)cc3n2)s1 [Example 0364] |  |  |  | < 1000 nM | < 1000 nM | < 1000 nM |
| c1ncc(N2CCOCC2)cc1Nc1cnc2ccc(Nc3nnc(C4CCCC4)s3)nc2c1 [Example 0090] | < 1000 nM | < 1000 nM | < 1000 nM |  |  |  |
| CCOc1nn(C)cc1-c1cnc2ccc(Nc3nnc(C(C)C)s3)nc2c1 [Example 0150] | < 1000 nM | < 1000 nM | 1000 to 10000 nM |  |  |  |
| CCOc1c(-c2cnn(C)c2)cnc2ccc(Nc3nnc(C4CCCC4)s3)nc12 [Example 0358, 5-Cyclopentyl-N-(8-ethoxy-7-(1-methyl-1H-pyrazol-4-yl)-1,5-naphthyridin-2-yl)-1,3,4-thiadiazole-2-amine] |  |  |  | < 1000 nM | < 1000 nM | < 1000 nM |
| CCCc1nnc(Nc2ccc3ncc(-c4cnn(C)c4)cc3n2)s1 [Example 0169, N-(7-(1-methyl-1H-pyrazol-4-yl)-1,5-naphthyridin-2-yl)-5-propyl-1,3,4-thiadiazole-2-amine] |  | < 1000 nM | < 1000 nM |  |  |  |
| c1nc2ccc(Nc3nnc(C4CCCC4)s3)nc2cc1-c1cnn(CCCN2CCCCC2)c1 [Example 0344, 5-cyclopentyl-N-(7-(1-(3-(piperidin-1-yl)propyl)-1H-pyrazol-4-yl)-1,5-naphthyridin-2-yl)-1,3,4-thiadiazole-2-amine] |  |  |  | < 1000 nM | < 1000 nM | < 1000 nM |
| c1nc2ccc(Nc3nnc(C4CCCCC4)s3)nc2cc1-c1cnn(CCCN2CCCC2)c1 [Example 0236] |  |  |  | < 1000 nM | < 1000 nM | < 1000 nM |
| c1cnc2[nH]cc(-c3cnc4ccc(Nc5nnc(C6CCCC6)s5)nc4c3)c2c1 [Example 0111] |  | < 1000 nM | < 1000 nM |  |  |  |
| CC(C)c1cnnc(Nc2ccc3ncc(-c4cnn(C)c4)nc3n2)c1 [Example 0014, N-(5-isopropylpyridazin-3-yl)-3-(1-methyl-1H-pyrazol-4-yl)pyrido[2,3-b]pyrazine-6-amine] | < 1000 nM | < 1000 nM | < 1000 nM |  |  |  |
| CCc1nn(C)cc1-c1cnc2ccc(Nc3nnc(C(C)C)s3)nc2c1 [Example 0121] | < 1000 nM | < 1000 nM | < 1000 nM |  |  |  |
| CCc1nnc(Nc2ccc3ncc(-c4cnn(C)c4)cc3n2)s1 [Example 0163] | < 1000 nM | < 1000 nM | < 1000 nM |  |  |  |
| c1nc2ccc(Nc3nnc(C4CCCC4)s3)nc2cc1N1CCn2cnnc2C1 [Example 0091] | < 1000 nM | < 1000 nM | < 1000 nM |  |  |  |
| Cn1cc(-c2cc3nc(Nc4nnc(C5CCCC5)s4)ccc3nc2Cl)cn1 [Example 0349, N-(6-chloro-7-(1-methyl-1H-pyrazol-4-yl)-1,5-naphthyridin-2-yl)-5-cyclopentyl-1,3,4-thiadiazole-2-amine] |  |  |  |  | < 1000 nM | 1000 to 10000 nM |
| Cn1cc(-c2cnc3ccc(Nc4nnc(C5CCCN5)s4)nc3c2)cn1 (stereo not shown) [Example 0246, N-(7-(1-methyl-1H-pyrazol-4-yl)-1,5-naphthyridin-2-yl)-5-(pyrrolidin-2-yl)-1,3,4-thiadiazole-2-amine] |  |  |  | 1000 to 10000 nM | < 1000 nM | < 1000 nM |
| CCOc1nc2ccc(Nc3nnc(C4CCCC4)s3)nc2cc1-c1cnn(C)c1 [Example 0357, 5-Cyclopentyl-N-(6-ethoxy-7-(1-methyl-1H-pyrazol-4-yl)-1,5-naphthyridin-2-yl)-1,3,4-thiadiazole-2-amine] |  |  |  |  | 1000 to 10000 nM | 1000 to 10000 nM |
| Cn1cc(-c2cnc3ccc(Nc4nnc(C5CCCCC5)s4)nc3c2)cn1 [Example 0217, 5-Cyclohexyl-N-(7-(1-methyl-1H-pyrazol-4-yl)-1,5-naphthyridin-2-yl)-1,3,4-thiadiazole-2-amine] |  |  |  |  | < 1000 nM | < 1000 nM |
| CC(C)c1cnnc(Nc2ccc3ncc(-c4cnn(CCCN(C)C)c4)cc3n2)c1 [Example 0020, 7-(1-(3-(Dimethylamino)propyl)-1H-pyrazol-4-yl)-N-(5-isopropylpyridazin-3-yl)-1,5-naphthyridine-2-amine] | < 1000 nM | < 1000 nM |  |  |  |  |
| CC(C)c1cnnc(Nc2ccc3ncc(-c4cnn(CCCN5CCCC(C#N)C5)c4)cc3n2)c1 (stereo not shown) [Example 0379, 1-(3-(4-(6-((5-Isopropylpyridazin-3-yl)amino)-1,5-naphthyridin-3-yl)-1H-pyrazol-1-yl)propyl)piperidine-3-carbonitrile] |  |  |  | < 1000 nM | < 1000 nM |  |
